Laboratory results: ChEMBL document CHEMBL1149262, “Monoamine transporter binding, locomotor activity, and drug discrimination properties of 3-(4-substituted-phenyl)tropane-2-carboxylic acid methyl ester isomers” (J Med Chem, 2004)
Active and inactive are the calls of the source. No cut-off for these calls is given here.

What was measured:
[1] = system: Mus musculus; assay: Activity in CD1 mouse assessed as stereotypy at 100 mg/kg, ip after 4 hrs; assay type: functional, organism-based; set-up: dose 100 mg/kg
[2] = system: Mus musculus; assay: Activity in CD1 mouse assessed as stereotypy at 10 mg/kg, ip after 4 hrs; assay type: functional, organism-based; set-up: dose 10 mg/kg
[3] = system: Mus musculus; assay: Locomotor activity in CD1 mouse assessed as stimulation at 10 mg/kg, ip after 2 hrs relative to control; assay type: functional; conditions: route intraperitoneal
[4] = system: Mus musculus; assay: Locomotor activity in CD1 mouse assessed as stimulation at 10 mg/kg, ip after 1 hr relative to control; assay type: functional; conditions: route intraperitoneal
[5] = system: Mus musculus; assay: Locomotor activity in CD1 mouse assessed as stimulation at 1 mg/kg, ip after 2 hrs relative to control; assay type: functional; conditions: route intraperitoneal
[6] = system: Mus musculus; assay: Locomotor activity in CD1 mouse assessed as stimulation at 3 mg/kg, ip after 3 hrs relative to control; assay type: functional; conditions: route intraperitoneal
[7] = system: Rattus norvegicus; assay: Drug discrimination effect in CD Albino rat assessed as percent of rat choosing cocaine lever at 1 mg/kg, ip; assay type: functional; conditions: route intraperitoneal
[8] = system: Mus musculus; assay: Locomotor activity in ip dosed CD1 mouse in peak hour; assay type: functional
[9] = system: Mus musculus; assay: Locomotor activity in CD1 mouse assessed as stimulation at 10 mg/kg, ip after 3 hrs relative to control; assay type: functional; conditions: route intraperitoneal
[10] = system: Mus musculus; assay: Locomotor activity in CD1 mouse assessed as stimulation at 3 mg/kg, ip after 4 hrs relative to control; assay type: functional; conditions: route intraperitoneal
[11] = system: Rattus norvegicus; assay: Drug discrimination effect in CD Albino rat assessed as percent of rat choosing cocaine lever at 0.56 mg/kg, ip; assay type: functional; conditions: route intraperitoneal
[12] = target: Sodium-dependent noradrenaline transporter (Homo sapiens, UniProt P23975); assay: Displacement of [3H]nisoxetine from NET
[13] = system: Rattus norvegicus; assay: Drug discrimination effect in CD Albino rat assessed as percent of rat choosing cocaine lever at 0.17 mg/kg, ip; assay type: functional; conditions: route intraperitoneal
[14] = system: Mus musculus; assay: Locomotor activity in CD1 mouse assessed as stimulation at 1 mg/kg, ip after 4 hrs relative to control; assay type: functional; conditions: route intraperitoneal
[15] = system: Mus musculus; assay: Locomotor activity in CD1 mouse assessed as stimulation at 10 mg/kg, ip after 4 hrs relative to control; assay type: functional; conditions: route intraperitoneal
[16] = system: Mus musculus; assay: Activity in CD1 mouse assessed as hyperactivity at 10 mg/kg, ip after 4 hrs; assay type: functional, organism-based; set-up: dose 10 mg/kg
[17] = system: Mus musculus; assay: Locomotor activity in CD1 mouse assessed as stimulation at 3 mg/kg, ip after 2 hrs relative to control; assay type: functional; conditions: route intraperitoneal
[18] = system: Mus musculus; assay: Locomotor activity in CD1 mouse assessed as stimulation at 3 mg/kg, ip after 1 hr relative to control; assay type: functional; conditions: route intraperitoneal
[19] = system: Mus musculus; assay: Locomotor activity in CD1 mouse assessed as stimulation at 0.3 mg/kg, ip after 3 hrs relative to control; assay type: functional; conditions: route intraperitoneal
[20] = system: Mus musculus; assay: Activity in CD1 mouse assessed as straub tail at 100 mg/kg, ip after 4 hrs; assay type: functional, organism-based; set-up: dose 100 mg/kg
[21] = system: Mus musculus; assay: Activity in CD1 mouse assessed as stereotypy at 1 mg/kg, ip after 4 hrs; assay type: functional, organism-based; set-up: dose 1 mg/kg
[22] = system: Rattus norvegicus; assay: Drug discrimination effect in CD Albino rat assessed as percent of rat choosing cocaine lever at 0.3 mg/kg, ip; assay type: functional; conditions: route intraperitoneal
[23] = system: Rattus norvegicus; assay: Cocaine discrimination in ip dosed CD Albino rat; assay type: functional
[24] = system: Mus musculus; assay: Activity in CD1 mouse assessed as circling at 10 mg/kg, ip after 4 hrs; assay type: functional, organism-based; set-up: dose 10 mg/kg
[25] = system: Mus musculus; assay: Activity in CD1 mouse assessed as convulsions at 100 mg/kg, ip after 4 hrs; assay type: functional, organism-based; set-up: dose 100 mg/kg
[26] = system: Mus musculus; assay: Locomotor activity in CD1 mouse assessed as stimulation at 0.3 mg/kg, ip after 4 hrs relative to control; assay type: functional; conditions: route intraperitoneal
[27] = system: Mus musculus; assay: Locomotor activity in CD1 mouse assessed as stimulation at 1 mg/kg, ip after 3 hrs relative to control; assay type: functional; conditions: route intraperitoneal
[28] = system: Mus musculus; assay: Activity in CD1 mouse assessed as hyperactivity at 1 mg/kg, ip after 4 hrs; assay type: functional, organism-based; set-up: dose 1 mg/kg
[29] = system: Mus musculus; assay: Locomotor activity in CD1 mouse assessed as stimulation at 0.3 mg/kg, ip after 1 hr relative to control; assay type: functional; conditions: route intraperitoneal
[30] = system: Mus musculus; assay: Locomotor activity in CD1 mouse assessed as stimulation at 0.3 mg/kg, ip after 2 hrs relative to control; assay type: functional; conditions: route intraperitoneal
[31] = system: Mus musculus; assay: Locomotor activity in CD1 mouse assessed as stimulation at 1 mg/kg, ip after 1 hr relative to control; assay type: functional; conditions: route intraperitoneal
[32] = system: Rattus norvegicus; assay: Drug discrimination effect in CD Albino rat assessed as percent of rat choosing cocaine lever at 5.6 mg/kg, ip; assay type: functional; conditions: route intraperitoneal
[33] = system: Mus musculus; assay: Locomotor activity in CD1 mouse assessed as stimulation at 30 mg/kg, ip after 4 hrs relative to control; assay type: functional; conditions: route intraperitoneal
[34] = system: Mus musculus; assay: Activity in CD1 mouse assessed as hyperactivity at 100 mg/kg, ip after 4 hrs; assay type: functional, organism-based; set-up: dose 100 mg/kg
[35] = target: Sodium-dependent serotonin transporter (Homo sapiens, UniProt P31645)
Description: Displacement of [3H]paroxetine from 5HTT

[36] = system: Mus musculus; assay: Locomotor activity in CD1 mouse assessed as stimulation at 100 mg/kg, ip after 4 hrs relative to control; assay type: functional; conditions: route intraperitoneal
[37] = system: Mus musculus; assay: Activity in CD1 mouse assessed as slight or intermittent hyperactivity at 10 mg/kg, ip after 4 hrs; assay type: functional, organism-based; set-up: dose 10 mg/kg
[38] = system: Mus musculus; assay: Locomotor activity in CD1 mouse assessed as stimulation at 30 mg/kg, ip after 2 hrs relative to control; assay type: functional; conditions: route intraperitoneal
[39] = system: Mus musculus; assay: Activity in CD1 mouse assessed as circling at 100 mg/kg, ip after 4 hrs; assay type: functional, organism-based; set-up: dose 100 mg/kg
[40] = system: Mus musculus; assay: Locomotor activity in CD1 mouse assessed as stimulation at 100 mg/kg, ip after 3 hrs relative to control; assay type: functional; conditions: route intraperitoneal
[41] = system: Rattus norvegicus; assay: Drug discrimination effect in CD Albino rat assessed as percent of rat choosing cocaine lever at 10 mg/kg, ip; assay type: functional; conditions: route intraperitoneal
[42] = system: Rattus norvegicus; assay: Drug discrimination effect in CD Albino rat assessed as percent of rat choosing cocaine lever at 3 mg/kg, ip; assay type: functional; conditions: route intraperitoneal
[43] = system: Mus musculus; assay: Locomotor activity in CD1 mouse assessed as stimulation at 30 mg/kg, ip after 3 hrs relative to control; assay type: functional; conditions: route intraperitoneal
[44] = system: Mus musculus; assay: Locomotor activity in CD1 mouse assessed as stimulation at 100 mg/kg, ip after 2 hrs relative to control; assay type: functional; conditions: route intraperitoneal
[45] = system: Mus musculus; assay: Locomotor activity in CD1 mouse assessed as stimulation at 30 mg/kg, ip after 1 hr relative to control; assay type: functional; conditions: route intraperitoneal
[46] = system: Mus musculus; assay: Locomotor activity in CD1 mouse assessed as stimulation at 100 mg/kg, ip after 1 hr relative to control; assay type: functional; conditions: route intraperitoneal
[47] = system: Rattus norvegicus; assay: Drug discrimination effect in CD Albino rat assessed as percent of rat choosing cocaine lever at 1.7 mg/kg, ip; assay type: functional; conditions: route intraperitoneal

Sodium-dependent noradrenaline transporter, sequence (P23975 whole entry): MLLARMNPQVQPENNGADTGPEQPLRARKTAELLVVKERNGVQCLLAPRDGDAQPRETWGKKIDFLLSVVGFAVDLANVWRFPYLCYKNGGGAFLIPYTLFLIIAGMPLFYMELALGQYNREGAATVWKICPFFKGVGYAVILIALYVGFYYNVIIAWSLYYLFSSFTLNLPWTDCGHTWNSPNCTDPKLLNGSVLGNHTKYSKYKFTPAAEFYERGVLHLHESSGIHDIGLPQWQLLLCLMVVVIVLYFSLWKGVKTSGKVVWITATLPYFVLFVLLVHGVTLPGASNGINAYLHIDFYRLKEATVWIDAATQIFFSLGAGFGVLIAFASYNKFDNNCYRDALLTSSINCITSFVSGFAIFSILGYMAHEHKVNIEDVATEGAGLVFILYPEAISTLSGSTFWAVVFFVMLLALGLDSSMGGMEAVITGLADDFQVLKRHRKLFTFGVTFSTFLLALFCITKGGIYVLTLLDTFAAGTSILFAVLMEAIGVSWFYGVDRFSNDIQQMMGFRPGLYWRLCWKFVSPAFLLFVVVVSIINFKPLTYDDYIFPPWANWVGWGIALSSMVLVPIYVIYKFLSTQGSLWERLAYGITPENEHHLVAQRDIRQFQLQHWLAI
Sodium-dependent serotonin transporter, sequence (P31645 whole entry): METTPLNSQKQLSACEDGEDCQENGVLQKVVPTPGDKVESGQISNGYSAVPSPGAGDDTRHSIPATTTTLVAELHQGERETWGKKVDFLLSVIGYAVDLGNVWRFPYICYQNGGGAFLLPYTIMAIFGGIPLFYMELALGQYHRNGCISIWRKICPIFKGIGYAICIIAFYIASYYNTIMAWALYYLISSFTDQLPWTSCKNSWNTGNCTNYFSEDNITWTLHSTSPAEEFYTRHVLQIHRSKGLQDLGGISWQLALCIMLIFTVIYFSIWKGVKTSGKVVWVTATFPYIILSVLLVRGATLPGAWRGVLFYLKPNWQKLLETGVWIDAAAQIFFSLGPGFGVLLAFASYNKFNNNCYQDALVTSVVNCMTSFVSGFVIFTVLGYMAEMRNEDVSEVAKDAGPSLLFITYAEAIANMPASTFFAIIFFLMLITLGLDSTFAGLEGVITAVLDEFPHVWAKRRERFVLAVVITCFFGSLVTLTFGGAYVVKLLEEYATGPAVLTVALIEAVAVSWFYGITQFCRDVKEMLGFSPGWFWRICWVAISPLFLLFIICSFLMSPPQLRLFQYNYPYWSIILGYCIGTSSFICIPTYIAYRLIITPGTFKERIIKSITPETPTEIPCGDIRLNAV

Structure (SMILES)	Activity [1]	Activity [2]	Activity [3] [%]	Activity [4] [%]	Activity [6] [%]	Activity [7] [%]	ED50 [8] [mg/kg]	Activity [9] [%]	Activity [10] [%]	IC50 [12] [nM]	Ki [12] [nM]	Activity [15] [%]	Activity [16]	Activity [17] [%]	Activity [18] [%]	ED50 [23] [mg/kg]	Activity [24]	Activity [25]	Activity [32] [%]	Activity [33] [%]	other results
COC(=O)[C@@H]1C2CC[C@H](C[C@@H]1c1ccccc1)N2C	Active	Active	1080	904	276	100	1.2	964	199	920	550	190	Active	506	660	0.34	Active	Active			Activity [5]: 192%; Activity [11]: 88%; Activity [13]: 14%; Activity [14]: 151%; Activity [19]: 24%; Activity [20]: Active; Activity [21]: Active; Activity [22]: 36%; Activity [26]: 62%; Activity [27]: 102%; Activity [28]: Active; Activity [29]: 44%; Activity [30]: 56%; Activity [31]: 253%
COC(=O)[C@@H]1C2CCC(C[C@H]1c1ccc(F)cc1)N2C (stereo partly specified)	Active	Active	105	137	16	0	15.6	146	41	1200	741	58		-23	26	5.66	Active		38	66	Activity [34]: Active; IC50 [35]: 5060 nM; Ki [35]: 460 nM; Activity [36]: 73%; Activity [37]: Active; Activity [38]: 187%; Activity [39]: Active; Activity [40]: 194%; Activity [41]: 86%; Activity [42]: 29%; Activity [43]: 215%; Activity [44]: 340%; Activity [45]: 362%; Activity [46]: 575%
COC(=O)[C@H]1[C@@H](OC(=O)c2ccccc2)C[C@@H]2CC[C@H]1N2C [COCAINE]	Active		24	127	-17	21	10	10	-9			-21	Active	14	27	2.44		Active	82	16	Activity [47]: 32%; Activity [34]: Active; Activity [36]: 91%; Activity [38]: 100%; Activity [40]: 255%; Activity [41]: 97%; Activity [42]: 59%; Activity [43]: -10%; Activity [44]: 391%; Activity [45]: 341%; Activity [46]: 269%
